Read-outs that look alike come from different tables or passages of the source.
Test system: CD19 CAR T cells
Experiment: CAR T cell cytokine production (Luminex) under CD19 K562, KIP-1 or CD2/3/28 stimulation
Details: 72 h; for IC50: Homo sapiens, T-cell

`N#CCC1(n2cc(-c3ncnc4[nH]ccc34)cn2)CN(C2CCN(C(=O)c3ccnc(C(F)(F)F)c3F)CC2)C1` [itacitinib] gave an IC50 (read-out: Suppression of cytokine production, GMCSF (IC50), CD3/CD28 stimulation, 72 h) of less than 100 nM, an IC50 (read-out: Suppression of cytokine production, GMCSF (IC50), K562-CD19 stimulation, 72 h) of 377 nM and an IC50 (read-out: Suppression of cytokine production, GMCSF (IC50), KIP-1 stimulation, 72 h) of 273 nM. It also gave an IC50 (read-out: Suppression of cytokine production, GzB (IC50), CD3/CD28 stimulation, 72 h) of 2740 nM, an IC50 (read-out: Suppression of cytokine production, GzB (IC50), K562-CD19 stimulation, 72 h) greater than 10000 nM and an IC50 (read-out: Suppression of cytokine production, GzB (IC50), KIP-1 stimulation, 72 h) greater than 10000 nM. For the same compound, the IC50 (read-out: Suppression of cytokine production, IFNg (IC50), CD3/CD28 stimulation, 72 h) was greater than 10000 nM, the IC50 (read-out: Suppression of cytokine production, IFNg (IC50), KIP-1 stimulation, 72 h) was greater than 10000 nM and the IC50 (read-out: Suppression of cytokine production, IL-2Ra (IC50), CD3/CD28 stimulation, 72 h) was 144 nM. The IC50 (read-out: Suppression of cytokine production, IL-2Ra (IC50), K562-CD19 stimulation, 72 h) was less than 100 nM, the IC50 (read-out: Suppression of cytokine production, IL-2Ra (IC50), KIP-1 stimulation, 72 h) was less than 100 nM and the IC50 (read-out: Suppression of cytokine production, IL-6 (IC50), CD3/CD28 stimulation, 72 h) was less than 100 nM. The IC50 (read-out: Suppression of cytokine production, IL-6 (IC50), KIP-1 stimulation, 72 h) was 1970 nM, the IC50 (read-out: Suppression of cytokine production, IL-8 (IC50), CD3/CD28 stimulation, 72 h) was less than 100 nM and the IC50 (read-out: Suppression of cytokine production, IL-8 (IC50), K562-CD19 stimulation, 72 h) was less than 100 nM. The IC50 (read-out: Suppression of cytokine production, IL-8 (IC50), KIP-1 stimulation, 72 h) was less than 100 nM, the IC50 (read-out: Suppression of cytokine production, IL-10 (IC50), CD3/CD28 stimulation, 72 h) was less than 100 nM and the IC50 (read-out: Suppression of cytokine production, IL-10 (IC50), K562-CD19 stimulation, 72 h) was less than 100 nM. For the same compound, the IC50 (read-out: Suppression of cytokine production, IL-10 (IC50), KIP-1 stimulation, 72 h) was less than 100 nM, the IC50 (read-out: Suppression of cytokine production, MCP-1 (IC50), CD3/CD28 stimulation, 72 h) was less than 100 nM and the IC50 (read-out: Suppression of cytokine production, MCP-1 (IC50), K562-CD19 stimulation, 72 h) was less than 100 nM. It also gave an IC50 (read-out: Suppression of cytokine production, MCP-1 (IC50), KIP-1 stimulation, 72 h) of 2580 nM, an IC50 (read-out: Suppression of cytokine production, MIG (IC50), CD3/CD28 stimulation, 72 h) of 549 nM and an IC50 (read-out: Suppression of cytokine production, MIG (IC50), K562-CD19 stimulation, 72 h) of less than 100 nM. The IC50 (read-out: Suppression of cytokine production, MIG (IC50), KIP-1 stimulation, 72 h) was less than 100 nM, the IC50 (read-out: Suppression of cytokine production, MIP-1a (IC50), CD3/CD28 stimulation, 72 h) was 361 nM and the IC50 (read-out: Suppression of cytokine production, MIP-1a (IC50), K562-CD19 stimulation, 72 h) was 167 nM. It also gave an IC50 (read-out: Suppression of cytokine production, MIP-1a (IC50), KIP-1 stimulation, 72 h) of 1420 nM, an IC50 (read-out: Suppression of cytokine production, MIP-1b (IC50), CD3/CD28 stimulation, 72 h) of less than 100 nM and an IC50 (read-out: Suppression of cytokine production, MIP-1b (IC50), K562-CD19 stimulation, 72 h) of 149 nM. The IC50 (read-out: Suppression of cytokine production, MIP-1b (IC50), KIP-1 stimulation, 72 h) was 553 nM, the IC50 (read-out: Suppression of cytokine production, Perforin (IC50), CD3/CD28 stimulation, 72 h) was 1600 nM and the IC50 (read-out: Suppression of cytokine production, Perforin (IC50), K562-CD19 stimulation, 72 h) was less than 100 nM. It also gave an IC50 (read-out: Suppression of cytokine production, Perforin (IC50), KIP-1 stimulation, 72 h) of 431 nM, an IC50 (read-out: Suppression of cytokine production, TNFa (IC50), CD3/CD28 stimulation, 72 h) of less than 100 nM and an IC50 (read-out: Suppression of cytokine production, TNFa (IC50), K562-CD19 stimulation, 72 h) of less than 100 nM. For the same compound, the IC50 (read-out: Suppression of cytokine production, TNFa (IC50), KIP-1 stimulation, 72 h) was 320 nM, the “Suppression of cytokine production, IFNg (IC50)” value (K562-CD19 stimulation) was “Suppress” and the “Suppression of cytokine production, IL-6 (IC50)” value (K562-CD19 stimulation) was “Suppress”.
